US8546615B2, “Solid dapoxetine” (Symed Labs Limited, priority 2009, dated 2013)

Experiment: Storage/thermal stability of the solid form
Format: physicochemical
Settings: stable for any period of time, no test described

| SMILES | temperature below which the solid is stable |
| --- | --- |
| CN(C)[C@@H](CCOc1cccc2ccccc12)c1ccccc1 (single isomer, unassigned) [solid dapoxetine S enantiomer] | below 60 °C |
| CN(C)[C@@H](CCOc1cccc2ccccc12)c1ccccc1 (racemic) [solid racemic dapoxetine] | below 45 °C |
